{"source": "PubChem BioAssay AID2060899", "about": "(Molecular Pharmacology Branch, DTP, NCI, 2025);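 also: spheroids exposed to compounds for seven days before readout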;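 as to viability, T/C: 100% = DMSO vehicle control viability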", "test_system": "565726-208-R1-J5-PDC complex spheroids, growth inhibition", "experiment": "Anticancer human tumor 565726-208-R1-J5-PDC patient-derived pancreatic adenocarcinoma cell line growth inhibition [RAS]", "settings": "for IC50: curve of first compound; for viability, T/C: stronger effect = lower value", "outline": "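Agents were tested in combination matrices in half-log decrements from a top concentration at or near clinical Cmax (10 microM if undetermined). Targets were multi-cell spheroids of tumour lines plus HUVEC and MSC stromal cells.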"}
{"smiles": "CC(C)n1nc(-c2ccc3oc(N)nc3c2)c2c(N)ncnc21", "note": "+ C#Cc1c(F)ccc2cc(O)cc(-c3ncc4c(N5CC6CCC(C5)N6)nc(OCC56CCCN5CC(F)C6)nc4c3F)c12", "values": [{"measurement": "IC50", "setting": "second compound 0.0316 µM", "result": "> 100", "unit": "nM"}, {"measurement": "IC50", "setting": "second compound 0.1 µM", "result": "> 100", "unit": "nM"}, {"measurement": "IC50", "setting": "second compound 0.316 µM", "result": "> 100", "unit": "nM"}, {"measurement": "IC50", "setting": "second compound 1 µM", "result": 14.4, "unit": "nM"}, {"measurement": "IC50", "setting": "second compound 3.16 µM", "result": 5.06, "unit": "nM"}, {"measurement": "IC50", "setting": "second compound 10 µM", "result": 4.63, "unit": "nM"}, {"measurement": "viability, T/C", "setting": "second compound 0.0316 µM, first compound 0.000316 µM", "result": 108, "unit": "%"}, {"measurement": "viability, T/C", "setting": "second compound 0.0316 µM, first compound 0.001 µM", "result": 156, "unit": "%"}, {"measurement": "viability, T/C", "setting": "second compound 0.0316 µM, first compound 0.00316 µM", "result": 87.2, "unit": "%"}, {"measurement": "viability, T/C", "setting": "second compound 0.0316 µM, first compound 0.01 µM", "result": 68.4, "unit": "%"}, {"measurement": "viability, T/C", "setting": "second compound 0.0316 µM, first compound 0.0316 µM", "result": 63.7, "unit": "%"}, {"measurement": "viability, T/C", "setting": "second compound 0.0316 µM, first compound 0.1 µM", "result": 49.2, "unit": "%"}, {"measurement": "viability, T/C", "setting": "second compound 0.1 µM, first compound 0.000316 µM", "result": 123, "unit": "%"}, {"measurement": "viability, T/C", "setting": "second compound 0.1 µM, first compound 0.001 µM", "result": 135, "unit": "%"}, {"measurement": "viability, T/C", "setting": "second compound 0.1 µM, first compound 0.00316 µM", "result": 73.8, "unit": "%"}, {"measurement": "viability, T/C", "setting": "second compound 0.1 µM, first compound 0.01 µM", "result": 72.5, "unit": "%"}, {"measurement": "viability, T/C", "setting": "second compound 0.1 µM, first compound 0.0316 µM", "result": 59.7, "unit": "%"}, {"measurement": "viability, T/C", "setting": "second compound 0.1 µM, first compound 0.1 µM", "result": 51, "unit": "%"}, {"measurement": "viability, T/C", "setting": "second compound 0.316 µM, first compound 0.000316 µM", "result": 123, "unit": "%"}, {"measurement": "viability, T/C", "setting": "second compound 0.316 µM, first compound 0.001 µM", "result": 149, "unit": "%"}, {"measurement": "viability, T/C", "setting": "second compound 0.316 µM, first compound 0.00316 µM", "result": 83.5, "unit": "%"}, {"measurement": "viability, T/C", "setting": "second compound 0.316 µM, first compound 0.01 µM", "result": 59.8, "unit": "%"}, {"measurement": "viability, T/C", "setting": "second compound 0.316 µM, first compound 0.0316 µM", "result": 50.6, "unit": "%"}, {"measurement": "viability, T/C", "setting": "second compound 0.316 µM, first compound 0.1 µM", "result": 42.8, "unit": "%"}, {"measurement": "viability, T/C", "setting": "second compound 1 µM, first compound 0.000316 µM", "result": 126, "unit": "%"}, {"measurement": "viability, T/C", "setting": "second compound 1 µM, first compound 0.001 µM", "result": 115, "unit": "%"}, {"measurement": "viability, T/C", "setting": "second compound 1 µM, first compound 0.00316 µM", "result": 68.3, "unit": "%"}, {"measurement": "viability, T/C", "setting": "second compound 1 µM, first compound 0.01 µM", "result": 62.4, "unit": "%"}, {"measurement": "viability, T/C", "setting": "second compound 1 µM, first compound 0.0316 µM", "result": 41.7, "unit": "%"}, {"measurement": "viability, T/C", "setting": "second compound 1 µM, first compound 0.1 µM", "result": 40, "unit": "%"}, {"measurement": "viability, T/C", "setting": "second compound 3.16 µM, first compound 0.000316 µM", "result": 111, "unit": "%"}, {"measurement": "viability, T/C", "setting": "second compound 3.16 µM, first compound 0.001 µM", "result": 107, "unit": "%"}, {"measurement": "viability, T/C", "setting": "second compound 3.16 µM, first compound 0.00316 µM", "result": 56.5, "unit": "%"}, {"measurement": "viability, T/C", "setting": "second compound 3.16 µM, first compound 0.01 µM", "result": 47.7, "unit": "%"}, {"measurement": "viability, T/C", "setting": "second compound 3.16 µM, first compound 0.0316 µM", "result": 32.9, "unit": "%"}, {"measurement": "viability, T/C", "setting": "second compound 3.16 µM, first compound 0.1 µM", "result": 30.6, "unit": "%"}, {"measurement": "viability, T/C", "setting": "second compound 10 µM, first compound 0.000316 µM", "result": 96.9, "unit": "%"}, {"measurement": "viability, T/C", "setting": "second compound 10 µM, first compound 0.001 µM", "result": 80.5, "unit": "%"}, {"measurement": "viability, T/C", "setting": "second compound 10 µM, first compound 0.00316 µM", "result": 56.4, "unit": "%"}, {"measurement": "viability, T/C", "setting": "second compound 10 µM, first compound 0.01 µM", "result": 36, "unit": "%"}, {"measurement": "viability, T/C", "setting": "second compound 10 µM, first compound 0.0316 µM", "result": 25.6, "unit": "%"}, {"measurement": "viability, T/C", "setting": "second compound 10 µM, first compound 0.1 µM", "result": 18.4, "unit": "%"}]}
{"smiles": "CCc1c2c(nc3ccc(O)cc13)-c1cc3c(c(=O)n1C2)COC(=O)[C@]3(O)CC", "note": "+ C#Cc1c(F)ccc2cc(O)cc(-c3ncc4c(N5CC6CCC(C5)N6)nc(OCC56CCCN5CC(F)C6)nc4c3F)c12", "values": [{"measurement": "IC50", "setting": "second compound 0.0316 µM", "result": 4.16, "unit": "nM"}, {"measurement": "IC50", "setting": "second compound 0.1 µM", "result": 4.06, "unit": "nM"}, {"measurement": "IC50", "setting": "second compound 0.316 µM", "result": 3.83, "unit": "nM"}, {"measurement": "IC50", "setting": "second compound 1 µM", "result": 2.73, "unit": "nM"}, {"measurement": "IC50", "setting": "second compound 3.16 µM", "result": 3.14, "unit": "nM"}, {"measurement": "IC50", "setting": "second compound 10 µM", "result": 1.5, "unit": "nM"}, {"measurement": "viability, T/C", "setting": "second compound 0.0316 µM, first compound 0.000949 µM", "result": 74.2, "unit": "%"}, {"measurement": "viability, T/C", "setting": "second compound 0.0316 µM, first compound 0.003 µM", "result": 56.9, "unit": "%"}, {"measurement": "viability, T/C", "setting": "second compound 0.0316 µM, first compound 0.00949 µM", "result": 34, "unit": "%"}, {"measurement": "viability, T/C", "setting": "second compound 0.0316 µM, first compound 0.03 µM", "result": 20.2, "unit": "%"}, {"measurement": "viability, T/C", "setting": "second compound 0.0316 µM, first compound 0.0949 µM", "result": 12.5, "unit": "%"}, {"measurement": "viability, T/C", "setting": "second compound 0.0316 µM, first compound 0.3 µM", "result": 5.35, "unit": "%"}, {"measurement": "viability, T/C", "setting": "second compound 0.1 µM, first compound 0.000949 µM", "result": 97.8, "unit": "%"}, {"measurement": "viability, T/C", "setting": "second compound 0.1 µM, first compound 0.003 µM", "result": 56, "unit": "%"}, {"measurement": "viability, T/C", "setting": "second compound 0.1 µM, first compound 0.00949 µM", "result": 31.8, "unit": "%"}, {"measurement": "viability, T/C", "setting": "second compound 0.1 µM, first compound 0.03 µM", "result": 19.4, "unit": "%"}, {"measurement": "viability, T/C", "setting": "second compound 0.1 µM, first compound 0.0949 µM", "result": 13.1, "unit": "%"}, {"measurement": "viability, T/C", "setting": "second compound 0.1 µM, first compound 0.3 µM", "result": 6.83, "unit": "%"}, {"measurement": "viability, T/C", "setting": "second compound 0.316 µM, first compound 0.000949 µM", "result": 81.1, "unit": "%"}, {"measurement": "viability, T/C", "setting": "second compound 0.316 µM, first compound 0.003 µM", "result": 56.2, "unit": "%"}, {"measurement": "viability, T/C", "setting": "second compound 0.316 µM, first compound 0.00949 µM", "result": 30.2, "unit": "%"}, {"measurement": "viability, T/C", "setting": "second compound 0.316 µM, first compound 0.03 µM", "result": 20.6, "unit": "%"}, {"measurement": "viability, T/C", "setting": "second compound 0.316 µM, first compound 0.0949 µM", "result": 13.9, "unit": "%"}, {"measurement": "viability, T/C", "setting": "second compound 0.316 µM, first compound 0.3 µM", "result": 6.04, "unit": "%"}, {"measurement": "viability, T/C", "setting": "second compound 1 µM, first compound 0.000949 µM", "result": 70.8, "unit": "%"}, {"measurement": "viability, T/C", "setting": "second compound 1 µM, first compound 0.003 µM", "result": 43, "unit": "%"}, {"measurement": "viability, T/C", "setting": "second compound 1 µM, first compound 0.00949 µM", "result": 35.9, "unit": "%"}, {"measurement": "viability, T/C", "setting": "second compound 1 µM, first compound 0.03 µM", "result": 22.4, "unit": "%"}, {"measurement": "viability, T/C", "setting": "second compound 1 µM, first compound 0.0949 µM", "result": 11.8, "unit": "%"}, {"measurement": "viability, T/C", "setting": "second compound 1 µM, first compound 0.3 µM", "result": 6.08, "unit": "%"}, {"measurement": "viability, T/C", "setting": "second compound 3.16 µM, first compound 0.000949 µM", "result": 58.8, "unit": "%"}, {"measurement": "viability, T/C", "setting": "second compound 3.16 µM, first compound 0.003 µM", "result": 54.6, "unit": "%"}, {"measurement": "viability, T/C", "setting": "second compound 3.16 µM, first compound 0.00949 µM", "result": 29.1, "unit": "%"}, {"measurement": "viability, T/C", "setting": "second compound 3.16 µM, first compound 0.03 µM", "result": 22.1, "unit": "%"}, {"measurement": "viability, T/C", "setting": "second compound 3.16 µM, first compound 0.0949 µM", "result": 14.1, "unit": "%"}, {"measurement": "viability, T/C", "setting": "second compound 3.16 µM, first compound 0.3 µM", "result": 7.99, "unit": "%"}, {"measurement": "viability, T/C", "setting": "second compound 10 µM, first compound 0.000949 µM", "result": 52.6, "unit": "%"}, {"measurement": "viability, T/C", "setting": "second compound 10 µM, first compound 0.003 µM", "result": 49.1, "unit": "%"}, {"measurement": "viability, T/C", "setting": "second compound 10 µM, first compound 0.00949 µM", "result": 30.1, "unit": "%"}, {"measurement": "viability, T/C", "setting": "second compound 10 µM, first compound 0.03 µM", "result": 30.9, "unit": "%"}, {"measurement": "viability, T/C", "setting": "second compound 10 µM, first compound 0.0949 µM", "result": 20.3, "unit": "%"}, {"measurement": "viability, T/C", "setting": "second compound 10 µM, first compound 0.3 µM", "result": 8.91, "unit": "%"}]}
